Measured values published in patent US20120022113A1, “METHODS FOR S[…] T[…] ACCUMULATION AND PREVENTING HYPERCYTOKINEMIA” (priority 2009, published 2012).

Legend:
[1] = tested on: H1N1 A/Puerto Rico/8/34 (PR8) influenza A virus; design: species or system B6 mice; settings: mouse, in vivo
[2] = tested on: influenza virus in madin-darby canine kidney (MDCK) cells; test: Virus replication in MDCK cells; settings: up to 1 μg/ml, compared to PBS

CCc1ccc(CCOc2ccc(CC3SC(=O)NC3=O)cc2)nc1 (centres unmarked) [pioglitazone]
mortality [1]: 50% | inhibition of virus replication in MDCK cells [2]: did not inhibit
